Source: paper PMC8779255, “Determining the Anticancer Activity of Sphingosine Kinase Inhibitors Containing Heteroatoms in Their Tail Structure” (Pharmaceutics, 2022)
Entries after “also recorded” stand apart in the source; their conditions may differ.

Legend:
HCT116 cells = assay: MTT cell viability assay; assay type: cell-based, human; conditions: for cytotoxic effect (cell viability): HCT116, 20 and 40 µM, 24 h, Figure 2B
Procedure: (§1) The HT29 and HCT116 cells (human colon cancer), AGS (human gastric cancer), and MIA PaCa-2 cells (human pancreatic cancer) were purchased from Korean Cell Line Bank (Seoul, Korea). Cancer cells were maintained in RPMI (HT29 and AGS) and DMEM (HCT116 and MIA PaCa-2) culture media supplemented with 10% fetal bovine serum (FBS) and 100 U/mL penicillin and streptomycin at 37 °C in a 95% humidified incubator containing 5% CO2. The cytotoxic effect of the compounds was assessed using the MTT cell viability assay. Briefly, 3 × 10^3 cells/well were grown in 96-well plates for 24 h. After treatment with desired concentration of respective compounds for 24 h or 48 h, the EZ-CYTOTOX (10 µM) reagent was added in each well and incubated for 90 min. The absorbance was measured at 450 nm wavelength using Skanlt software 5.0 (Thermo Scientific, Waltham, MA, USA) installed on a Multiskan GO (Thermo Scientific, Waltham, MA, USA) spectrophotometer. Each experiment was independently repeated three times (n = 12).

HT29 cells [1] = assay: Annexin V-FITC/PI staining, flow cytometry; assay type: cell-based, human; conditions: HT29, 10 and/or 20 µM, 24 h
Procedure: After treating HT29 and HCT116 cells with compounds 10, 11, 13 and FTY720 according to the manufacturer’s instruction, the annexin V and PI staining technique was employed to determine apoptosis in the cells. Briefly, cells (2.5 × 10^5 cells/well) were seeded in 12-well plates and treated with 10 and/or 20 µM of compounds for 24 h. Cells were collected using trypsin-EDTA and stained with annexin V-FITC dye for 15 min at room temperature, followed by PI staining for 20 min and analyzed by flow cytometer (MACSQuant Analyzer 10; Miltenyi Biotec, Bergisch Gladbach, Germany). The data was analyzed using MACSQuantify^TM version 2.8 software (Miltenyi Biotec, Bergisch Gladbach, Germany) and presented as early apoptosis, late apoptosis, or combined apoptosis percentage. Each experiment was repeated three times independently (n = 6).

PP2A in HCT116 cells = biological target: T1, PP2A in HCT116 cells (Homo sapiens, UniProt P67775); assay: PP2A activity assay (immunoprecipitation kit); assay type: cell-based; conditions: for PP2A activity (activation): HCT116, 20 µM, 24 h
T1 construct: endogenous in cells; host or cells: HCT116
Procedure: The activity of PP2A was measured by using the PP2A kit according to the manufacturer’s instruction. The cell lysate was incubated with anti PP2A, C subunit antibody, and protein A agarose slurry for 2 h at 4 °C. The phosphopeptide solution (60 µL) was mixed and incubated at 30 °C for 10 min in a shaker. After a brief centrifuge, a 25 µL sample was liquated in ½ volume microplate and 100 µL malachite green phosphate detection working solution was added. After color development, absorbance was taken at 650 nm in a Multiskan GO microplate reader. A phosphate standard curve was constructed using phosphate standard, and results were calculated using this standard curve. This experiment was repeated three times (n = 6).

SK1 enzyme = biological target: T2, SK1 enzyme (Homo sapiens, UniProt Q9NYA1); assay: SK activity assay (Adapta screening system); assay type: biochemical; conditions: 20 μM, Figure 5
T2 construct: purchased Thermo Fisher Scientific
Procedure: The effect of compounds in sphingosine kinase activity was examined using the […] screening system (Thermo Fisher Scientific System, Waltham, MA, USA). The kinase inhibition ability of compounds 1-11 along with RB005 was measured with final concentration of 20 μM. […] The data were presented as percentage inhibition of SK enzyme by individual compounds.

[2] = test system: AKT and ERK phosphorylation in HCT116 cells; assay: Western blotting of pAKT and pERK; assay type: cell-based, human; conditions: HCT116, 20 µM
Procedure: The cell lysate was prepared after successive treatment using mammalian protein extraction buffer (Organic buffer + 10 mM NaCl + detergent pH 7.5) mixed with 1% protease/phosphatase inhibitor cocktail; protein was quantified with BCA assay, boiled at 95 °C for 10 min by adding sample loading buffer, separated using SDS-PAGE, and transferred into methanol-activated PVDF membrane. Primary antibodies were probed overnight in PVDF membrane at 4 °C and […] with subsequent HRP anti-mouse and anti-rabbit secondary antibodies at room temperature. Then, membranes were washed with TBST buffer, and images were detected by Amersham Imager 680 (GE Healthcare; Leiden, WZ, The Netherlands) using ECL solution. Band intensities were analyzed and quantified using Image J software (version 1.53i).

HT29 cells [3] = assay: MTT cell viability assay; assay type: cell-based, human; conditions: HT29, 20 and 40 µM, 24 h, Figure 2A
Procedure: as §1

CYP2C19 = CYP2C19 (Homo sapiens, UniProt P33261); assay: Inhibition of CYP enzymes activity, human liver microsomes; conditions: human liver microsomes 0.25 mg/mL, 10 μM, S-mephenytoin substrate
CYP1A2 = biological target: T3, CYP1A2 (Homo sapiens, UniProt P05177); assay: as above; conditions: human liver microsomes 0.25 mg/mL, 10 μM, phenacetin substrate
T3 sequence (P05177 1-516): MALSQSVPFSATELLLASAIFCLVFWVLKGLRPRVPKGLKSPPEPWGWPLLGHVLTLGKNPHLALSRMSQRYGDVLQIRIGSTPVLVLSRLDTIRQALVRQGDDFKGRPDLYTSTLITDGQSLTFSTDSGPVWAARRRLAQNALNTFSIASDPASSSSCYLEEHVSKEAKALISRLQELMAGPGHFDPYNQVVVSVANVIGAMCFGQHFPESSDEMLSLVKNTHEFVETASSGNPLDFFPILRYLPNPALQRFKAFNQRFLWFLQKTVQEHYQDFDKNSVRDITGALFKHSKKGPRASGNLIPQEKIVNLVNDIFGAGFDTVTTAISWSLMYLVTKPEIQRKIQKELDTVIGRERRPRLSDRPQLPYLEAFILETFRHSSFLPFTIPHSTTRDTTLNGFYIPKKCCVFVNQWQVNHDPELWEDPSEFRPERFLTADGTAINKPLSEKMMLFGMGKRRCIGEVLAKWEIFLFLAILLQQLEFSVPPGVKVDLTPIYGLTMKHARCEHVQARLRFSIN

CYP2C9 = CYP2C9 (Homo sapiens, UniProt P11712); assay: as above; conditions: human liver microsomes 0.25 mg/mL, 10 μM, diclofenac substrate
SK1 = conditions: known compounds, Figure 1; cited from earlier work
SK2 = conditions: Figure 1, cited from earlier work; for IC50: known compounds
CYP2D6 = CYP2D6 (Homo sapiens, UniProt P10635); assay: Inhibition of CYP enzymes activity, human liver microsomes; conditions: human liver microsomes 0.25 mg/mL, 10 μM, dextromethorphan substrate
[4] = In vitro metabolic stability in liver microsomes; assay type: in vitro ADME, mouse
[5] = In vitro metabolic stability in liver microsomes; assay type: in vitro ADME, rat
[6] = In vitro metabolic stability in liver microsomes
[7] = % remaining after 30 min, NADPH

T2 sequence (Q9NYA1 whole entry): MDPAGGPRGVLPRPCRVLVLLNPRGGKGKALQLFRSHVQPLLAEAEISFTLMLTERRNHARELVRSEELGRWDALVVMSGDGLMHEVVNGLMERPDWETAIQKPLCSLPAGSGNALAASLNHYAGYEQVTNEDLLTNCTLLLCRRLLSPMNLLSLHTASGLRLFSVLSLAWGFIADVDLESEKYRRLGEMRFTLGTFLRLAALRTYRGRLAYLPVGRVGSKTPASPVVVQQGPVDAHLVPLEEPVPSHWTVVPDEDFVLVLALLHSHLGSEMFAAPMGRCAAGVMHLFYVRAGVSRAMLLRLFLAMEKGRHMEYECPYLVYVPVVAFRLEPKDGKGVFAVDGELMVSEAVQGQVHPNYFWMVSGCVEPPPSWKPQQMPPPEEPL
T1 sequence (P67775 whole entry): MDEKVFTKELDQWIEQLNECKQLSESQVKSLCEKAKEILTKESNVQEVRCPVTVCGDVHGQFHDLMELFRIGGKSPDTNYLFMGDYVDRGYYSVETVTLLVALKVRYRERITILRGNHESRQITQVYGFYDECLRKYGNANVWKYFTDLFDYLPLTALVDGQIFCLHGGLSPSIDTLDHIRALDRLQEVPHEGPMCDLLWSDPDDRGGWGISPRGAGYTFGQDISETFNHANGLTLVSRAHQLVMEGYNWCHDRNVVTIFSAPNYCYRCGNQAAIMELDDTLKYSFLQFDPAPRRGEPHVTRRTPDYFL
Sequence of CYP2C9 (P11712 whole entry): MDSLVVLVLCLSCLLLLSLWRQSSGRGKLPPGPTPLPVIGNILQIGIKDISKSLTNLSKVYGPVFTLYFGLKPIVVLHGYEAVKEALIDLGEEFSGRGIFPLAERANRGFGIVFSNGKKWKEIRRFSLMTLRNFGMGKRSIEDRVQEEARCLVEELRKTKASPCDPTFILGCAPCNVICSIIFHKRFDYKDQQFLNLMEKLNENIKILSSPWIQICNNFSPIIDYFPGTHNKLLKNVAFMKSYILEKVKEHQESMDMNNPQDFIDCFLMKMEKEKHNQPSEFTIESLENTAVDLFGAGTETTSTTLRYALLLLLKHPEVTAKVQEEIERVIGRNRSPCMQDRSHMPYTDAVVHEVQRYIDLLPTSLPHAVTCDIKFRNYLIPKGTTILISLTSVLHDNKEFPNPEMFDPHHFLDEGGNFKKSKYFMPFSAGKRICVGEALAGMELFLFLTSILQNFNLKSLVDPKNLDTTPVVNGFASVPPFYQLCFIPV
Sequence of CYP2C19 (P33261 whole entry): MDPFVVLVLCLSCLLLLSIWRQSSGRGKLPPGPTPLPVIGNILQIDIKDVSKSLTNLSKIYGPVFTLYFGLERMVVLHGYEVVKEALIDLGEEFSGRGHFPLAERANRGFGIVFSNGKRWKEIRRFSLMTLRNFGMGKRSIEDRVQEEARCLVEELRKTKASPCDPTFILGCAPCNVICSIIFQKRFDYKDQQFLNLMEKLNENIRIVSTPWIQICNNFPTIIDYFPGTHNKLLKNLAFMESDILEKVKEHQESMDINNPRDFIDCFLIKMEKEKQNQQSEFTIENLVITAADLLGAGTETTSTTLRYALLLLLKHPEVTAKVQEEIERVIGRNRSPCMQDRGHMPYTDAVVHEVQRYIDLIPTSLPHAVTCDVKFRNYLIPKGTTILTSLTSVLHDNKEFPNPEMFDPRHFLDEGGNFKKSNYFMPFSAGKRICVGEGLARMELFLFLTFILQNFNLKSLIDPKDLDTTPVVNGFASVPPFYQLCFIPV
Sequence of CYP2D6 (P10635 whole entry): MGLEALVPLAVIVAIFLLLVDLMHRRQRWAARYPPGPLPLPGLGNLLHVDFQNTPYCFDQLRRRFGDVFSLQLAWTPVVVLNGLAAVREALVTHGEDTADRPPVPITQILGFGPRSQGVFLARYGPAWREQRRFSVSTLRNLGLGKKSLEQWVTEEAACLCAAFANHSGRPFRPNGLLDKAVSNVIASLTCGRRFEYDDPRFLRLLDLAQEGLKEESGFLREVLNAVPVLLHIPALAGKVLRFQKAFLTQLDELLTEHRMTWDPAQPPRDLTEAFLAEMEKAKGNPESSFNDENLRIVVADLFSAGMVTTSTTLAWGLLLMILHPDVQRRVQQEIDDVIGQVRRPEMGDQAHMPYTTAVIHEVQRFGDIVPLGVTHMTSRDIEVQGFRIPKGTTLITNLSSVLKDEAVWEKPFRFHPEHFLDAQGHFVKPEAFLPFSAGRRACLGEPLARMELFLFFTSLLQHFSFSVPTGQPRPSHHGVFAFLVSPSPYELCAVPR

## CCCCCCCOc1ccc(CCN2CCC(C)CC2)cc1 [Compound 7, 1-(4-(Heptyloxy)phenethyl)-4-methylpiperidine]
HCT116 cells
  cytotoxic effect (cell viability): significant cytotoxic effects in both 20 and 40 µM concentrations

## O=S(=O)(Oc1ccc(CCN2CCC(O)CC2)cc1)c1ccccc1 [Compound 13, 4-(2-(4-Hydroxypiperidin-1-yl)ethyl)phenyl benzenesulfonate]
HT29 cells [1]
  apoptosis (annexin V assay): did not significantly induce apoptosis
PP2A in HCT116 cells
  PP2A activity (activation): no effect on PP2A activation; also recorded: did not increase PP2A activity
SK1 enzyme
  selectivity to SK1 (over SK2): more selectivity than RB005
[2]
  phosphorylation of AKT and ERK: did not decrease phosphorylation of AKT and ERK

## CCCCCCCOc1ccc(CCN2CCNCC2)cc1 [Compound 9, 1-(4-(Heptyloxy)phenethyl)piperazine]
HCT116 cells
  cytotoxic effect (cell viability): only 40 µM concentration of compounds 3, 5 and 9 shows significant cytotoxic effect
HT29 cells [3]
  cytotoxic effect (cell viability): more cytotoxic than RB005 and 5-FU

## CCCCCCCOc1ccc(CCN2CCC(CO)CC2)cc1 [Compound 6, (1-(4-(Heptyloxy)phenethyl)piperidin-4-yl)methanol]
HCT116 cells
  cytotoxic effect (cell viability): significant cytotoxic effects in both 20 and 40 µM concentrations
HT29 cells [3]
  cytotoxic effect (cell viability): more cytotoxic than RB005 and 5-FU

## CCCCCCCOc1ccc(CCN2CCC[C@H]2CO)cc1 [Compound 5, (S)-(1-(4-(Heptyloxy)phenethyl)pyrrolidin-2-yl)methanol]
HCT116 cells
  cytotoxic effect (cell viability): only 40 µM concentration of compounds 3, 5 and 9 shows significant cytotoxic effect

## CC(=O)N1CCN(c2ccc(OCC3COC(Cn4ccnc4)(c4ccc(Cl)cc4Cl)O3)cc2)CC1 (stereo not shown) [Ketoconazole]
CYP2C19
  CYP2C19 activity (% of control activity): >100%
CYP1A2
  CYP1A2 activity (% of control activity): >100%
CYP2C9
  CYP2C9 activity (% of control activity): >100%

## O=C(NCc1ccncc1)C12CC3CC(C1)CC(c1ccc(Cl)cc1)(C3)C2 [ABC294640]
SK1
  IC50: > 100 µM
SK2
  IC50: ~60 µM

## CCCCCCCOc1ccc(CCN2CCCC(CO)C2)cc1 (stereo not shown) [Compound 8, (1-(4-(Heptyloxy)phenethyl)piperidin-3-yl)methanol]
HCT116 cells
  cytotoxic effect (cell viability): significant cytotoxic effects in both 20 and 40 µM concentrations
HT29 cells [3]
  cytotoxic effect (cell viability): more cytotoxic than RB005 and 5-FU

## CCCCCCCOc1ccc(CCN2CCCCC2)cc1 [Compound 2, 1-(4-(Heptyloxy)phenethyl)piperidine]
HCT116 cells
  cytotoxic effect (cell viability): significant cytotoxic effects in both 20 and 40 µM concentrations
HT29 cells [3]
  cytotoxic effect (cell viability): more cytotoxic than RB005 and 5-FU

## CCCCCCCCc1ccc(CCN2CCC(O)CC2)cc1 [RB005, reference compound]
HCT116 cells; HCT116, 10, 20 and 40 µM, Supplementary Figure S1C
  cytotoxic effect, comparison: higher than compounds 11, 13, and PF-543
PP2A in HCT116 cells; HCT116, 24 h, 20 µM of compounds 10, 11 and 13, vs nontreated control cells
  PP2A activity increase: 1.59 fold

## CCCCOc1ccc(CCC=C2SC(=O)N(CCN)C2=O)cc1 [Compound K145]
SK1
  IC50: > 10 µM
SK2
  IC50: 4.3 µM

## CCCCCCCCOc1ccc(-c2noc([C@@H]3CCCN3C(=N)N)n2)cc1C(F)(F)F [SLM6041434]
SK2; known compound
  Ki: 0.4 to 1.1 µM

## O=S(=O)(Oc1ccc(CCN2CCC[C@@H]2CO)cc1)c1ccccc1 [Compound 11, (R)-4-(2-(2-(Hydroxymethyl)pyrrolidin-1-yl)ethyl)phenyl benzenesulfonate]
HT29 cells [1]
  apoptosis (annexin V assay): did not significantly induce apoptosis
PP2A in HCT116 cells
  PP2A activity (activation): no effect on PP2A activation; also recorded: did not increase PP2A activity
SK1 enzyme
  SK1 inhibitory effect: three-fold higher SK1 inhibitory effect than RB005
  selectivity to SK1 (over SK2): more selectivity than RB005
[2]
  phosphorylation of AKT and ERK: did not decrease phosphorylation of AKT and ERK

## CCCCCCCOc1ccc(CCN2CCC[C@@H]2CO)cc1 [Compound 1, (R)-(1-(4-(Heptyloxy)phenethyl)pyrrolidin-2-yl)methanol]
HCT116 cells
  cytotoxic effect (cell viability): significant cytotoxic effects in both 20 and 40 µM concentrations
HT29 cells [3]
  cytotoxic effect (cell viability): more cytotoxic than RB005 and 5-FU
SK1 enzyme
  SK1 inhibitory effect: highest SK1 inhibitory effect

## Cc1cc(CS(=O)(=O)c2ccccc2)cc(OCc2ccc(CN3CCC[C@@H]3CO)cc2)c1 [PF-543]
CYP1A2
  CYP1A2 activity (% of control activity): 80.9%
CYP2D6
  CYP2D6 activity (% of control activity): 63.9%
[4]; [7]
  liver microsomal stability, Mouse (%): 6.5%
[4]; mouse
  liver microsomal stability (in words): unstable
[5]; [7]
  liver microsomal stability, Rat (%): 8.1%
[5]; rat
  liver microsomal stability (in words): unstable
[6]; % remaining after 30 min, 0.5 mg/mL microsomes, NADPH
  liver microsomal stability, Human (%): 13.5%
[6]; human
  liver microsomal stability (in words): unstable
